From ChEMBL document CHEMBL1201862, “PubChem BioAssay data set” (2004)
Activity calls are given as the source filed them.

Legend:
[1] = target: Alkaline phosphatase, placental type (Homo sapiens, UniProt P05187); test: PLAP enzyme inhibitors, confirmation, biochemical, luminescence (AID 1512); format: functional
[2] = target: T1, Alkaline phosphatase, tissue-nonspecific isozyme (Homo sapiens, UniProt P05186); test: human TNAP enzyme inhibitors, SAR follow-up, biochemical, luminescent, dose response (AID 1056)
T1 sequence (P05186 whole entry): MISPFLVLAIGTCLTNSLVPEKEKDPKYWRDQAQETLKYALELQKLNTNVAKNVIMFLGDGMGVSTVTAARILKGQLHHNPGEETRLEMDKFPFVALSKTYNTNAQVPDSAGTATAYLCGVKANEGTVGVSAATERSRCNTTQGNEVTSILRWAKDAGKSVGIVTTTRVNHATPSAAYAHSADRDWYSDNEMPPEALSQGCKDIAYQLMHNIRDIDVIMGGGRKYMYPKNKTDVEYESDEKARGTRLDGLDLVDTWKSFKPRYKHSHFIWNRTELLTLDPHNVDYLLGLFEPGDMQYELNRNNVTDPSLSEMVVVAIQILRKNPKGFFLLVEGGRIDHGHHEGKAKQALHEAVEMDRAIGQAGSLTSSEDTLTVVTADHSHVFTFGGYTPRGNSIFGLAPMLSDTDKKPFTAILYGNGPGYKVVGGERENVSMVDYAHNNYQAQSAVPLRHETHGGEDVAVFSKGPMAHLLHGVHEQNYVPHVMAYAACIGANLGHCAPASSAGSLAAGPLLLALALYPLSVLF

[3] = target: T2, Tyrosine-protein phosphatase non-receptor type 7 (Homo sapiens, UniProt P35236); format: functional
T2 sequence (P35236 whole entry): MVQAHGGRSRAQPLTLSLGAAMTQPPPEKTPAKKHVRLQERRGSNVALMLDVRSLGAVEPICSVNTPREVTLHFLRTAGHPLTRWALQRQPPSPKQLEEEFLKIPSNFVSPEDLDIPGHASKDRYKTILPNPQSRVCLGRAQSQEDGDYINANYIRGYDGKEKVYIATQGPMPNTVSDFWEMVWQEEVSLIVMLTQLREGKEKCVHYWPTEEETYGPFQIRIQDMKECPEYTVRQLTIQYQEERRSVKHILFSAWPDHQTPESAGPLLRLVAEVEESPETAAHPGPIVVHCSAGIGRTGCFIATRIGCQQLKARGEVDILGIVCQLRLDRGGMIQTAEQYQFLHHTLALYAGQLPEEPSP

[4] = target: T3, Tyrosine-protein phosphatase non-receptor type 22 (Homo sapiens, UniProt Q9Y2R2); format: functional
T3 sequence (Q9Y2R2 whole entry): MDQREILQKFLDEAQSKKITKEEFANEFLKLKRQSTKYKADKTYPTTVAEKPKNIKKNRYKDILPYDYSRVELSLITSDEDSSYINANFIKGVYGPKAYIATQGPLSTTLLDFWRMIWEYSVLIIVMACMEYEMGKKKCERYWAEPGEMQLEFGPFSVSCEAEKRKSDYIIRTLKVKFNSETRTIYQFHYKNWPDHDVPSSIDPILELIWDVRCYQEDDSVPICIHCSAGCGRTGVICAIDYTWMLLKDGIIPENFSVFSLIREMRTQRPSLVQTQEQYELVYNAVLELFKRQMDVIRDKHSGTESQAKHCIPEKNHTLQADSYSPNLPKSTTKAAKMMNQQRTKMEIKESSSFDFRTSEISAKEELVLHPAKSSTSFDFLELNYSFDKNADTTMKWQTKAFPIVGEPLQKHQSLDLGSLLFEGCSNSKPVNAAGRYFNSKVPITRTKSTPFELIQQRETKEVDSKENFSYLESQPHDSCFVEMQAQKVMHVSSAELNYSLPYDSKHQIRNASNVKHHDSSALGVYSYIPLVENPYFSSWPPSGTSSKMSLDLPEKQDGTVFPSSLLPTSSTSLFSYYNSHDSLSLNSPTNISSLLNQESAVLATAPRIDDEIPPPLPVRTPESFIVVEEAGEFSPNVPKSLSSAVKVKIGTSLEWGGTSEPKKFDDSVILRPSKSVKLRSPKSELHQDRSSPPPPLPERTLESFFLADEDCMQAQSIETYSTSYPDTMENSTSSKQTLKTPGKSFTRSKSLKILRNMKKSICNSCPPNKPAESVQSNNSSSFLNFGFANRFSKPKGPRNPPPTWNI

[5] = target: T3, Tyrosine-protein phosphatase non-receptor type 22; format: functional; remark: listed apart in the source
[6] = target: Glyceraldehyde-3-phosphate dehydrogenase (Homo sapiens, UniProt P04406)
Glyceraldehyde-3-phosphate dehydrogenase, sequence (P04406 whole entry): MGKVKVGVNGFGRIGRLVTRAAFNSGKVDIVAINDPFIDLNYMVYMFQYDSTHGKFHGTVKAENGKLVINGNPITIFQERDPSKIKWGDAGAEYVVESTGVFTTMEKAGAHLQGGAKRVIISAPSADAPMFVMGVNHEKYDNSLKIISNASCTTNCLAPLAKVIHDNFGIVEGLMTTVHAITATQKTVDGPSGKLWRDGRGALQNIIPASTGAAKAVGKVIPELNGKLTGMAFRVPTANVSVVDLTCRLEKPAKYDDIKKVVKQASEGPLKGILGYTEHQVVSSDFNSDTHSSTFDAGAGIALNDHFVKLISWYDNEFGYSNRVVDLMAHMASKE

SUMO-activating enzyme = SUMO-activating enzyme (Homo sapiens, UniProt Q9UBT2); test: SUMOylation inhibitor hit validation, confirmation, SUMOylation inhibitor project, biochemical, AlphaScreen (AID 2018); format: functional
SUMO-activating enzyme, sequence (Q9UBE0 whole entry, the tested form may be a part): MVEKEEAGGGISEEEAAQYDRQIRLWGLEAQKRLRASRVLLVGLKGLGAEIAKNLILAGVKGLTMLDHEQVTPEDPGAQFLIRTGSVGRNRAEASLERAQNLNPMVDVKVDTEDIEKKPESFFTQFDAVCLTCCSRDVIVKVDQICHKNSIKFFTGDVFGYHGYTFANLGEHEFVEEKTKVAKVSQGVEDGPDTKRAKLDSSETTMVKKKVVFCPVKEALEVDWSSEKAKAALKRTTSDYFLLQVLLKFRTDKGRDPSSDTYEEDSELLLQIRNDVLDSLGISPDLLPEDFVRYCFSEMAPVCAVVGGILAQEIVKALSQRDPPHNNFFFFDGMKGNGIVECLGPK
SUMO-activating enzyme, sequence (Q9UBT2 whole entry, the tested form may be a part): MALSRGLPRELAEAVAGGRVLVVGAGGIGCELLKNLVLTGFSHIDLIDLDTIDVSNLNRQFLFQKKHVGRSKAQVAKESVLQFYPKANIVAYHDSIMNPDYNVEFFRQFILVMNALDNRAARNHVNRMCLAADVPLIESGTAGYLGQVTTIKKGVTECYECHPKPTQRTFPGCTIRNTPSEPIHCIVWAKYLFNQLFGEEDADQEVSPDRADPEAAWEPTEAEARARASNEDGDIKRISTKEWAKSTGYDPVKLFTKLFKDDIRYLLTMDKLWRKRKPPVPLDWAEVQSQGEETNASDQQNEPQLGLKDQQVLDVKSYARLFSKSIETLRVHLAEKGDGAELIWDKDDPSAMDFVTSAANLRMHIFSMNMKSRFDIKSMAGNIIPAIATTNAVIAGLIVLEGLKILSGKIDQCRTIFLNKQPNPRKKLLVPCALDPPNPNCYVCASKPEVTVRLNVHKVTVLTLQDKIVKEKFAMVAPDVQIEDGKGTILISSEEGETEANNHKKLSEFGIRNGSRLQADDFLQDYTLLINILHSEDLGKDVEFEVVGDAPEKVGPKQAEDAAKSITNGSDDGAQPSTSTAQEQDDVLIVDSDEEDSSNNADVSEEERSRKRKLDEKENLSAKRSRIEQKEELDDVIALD

[7] = target: T4, RNA-binding protein pos-1 (Caenorhabditis elegans, UniProt G5EF15); test: inhibitors of POS-1/mex-3 RNA binding, dose response, biochemical, fluorescence polarization (AID 1964);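 note: purified POS-1 fused to maltose binding protein made in E. coli; potency of compounds blocking POS-1 binding to fluorescent RNA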
T4 sequence (G5EF15 whole entry): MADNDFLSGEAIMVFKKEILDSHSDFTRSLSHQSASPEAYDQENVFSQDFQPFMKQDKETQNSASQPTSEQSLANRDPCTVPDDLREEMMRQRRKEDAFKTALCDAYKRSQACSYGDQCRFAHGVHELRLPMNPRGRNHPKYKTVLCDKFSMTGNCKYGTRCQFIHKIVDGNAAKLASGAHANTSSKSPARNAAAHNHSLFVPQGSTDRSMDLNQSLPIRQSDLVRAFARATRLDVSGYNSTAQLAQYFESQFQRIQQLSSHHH

[8] = target: T5, Zinc finger protein mex-5 (Caenorhabditis elegans, UniProt Q9XUB2); test: MEX-5/TCR-2 RNA interaction inhibitors, dose response, biochemical, C. elegans, fluorescence polarization (AID 1960)
T5 sequence (Q9XUB2 whole entry): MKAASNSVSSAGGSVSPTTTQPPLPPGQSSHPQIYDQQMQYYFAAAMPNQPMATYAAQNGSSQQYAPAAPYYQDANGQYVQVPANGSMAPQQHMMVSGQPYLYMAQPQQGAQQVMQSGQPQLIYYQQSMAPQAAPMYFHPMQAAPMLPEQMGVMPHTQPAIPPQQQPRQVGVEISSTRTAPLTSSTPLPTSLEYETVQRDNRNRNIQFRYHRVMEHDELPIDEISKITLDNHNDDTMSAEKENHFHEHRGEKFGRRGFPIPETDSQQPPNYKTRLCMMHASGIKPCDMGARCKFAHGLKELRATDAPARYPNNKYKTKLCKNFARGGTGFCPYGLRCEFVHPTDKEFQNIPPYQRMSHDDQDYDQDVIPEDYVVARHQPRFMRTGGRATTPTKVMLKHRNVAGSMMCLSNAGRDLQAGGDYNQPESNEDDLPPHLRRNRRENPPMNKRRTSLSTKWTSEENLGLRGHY

[9] = target: T6, G-protein coupled receptor 55 (Homo sapiens, UniProt Q9Y2T6); test: GPR55 agonists via beta-arrestin recruitment, primary screen, imaging, U2OS cells, beta-arrestin-GFP redistribution (AID 1961); format: functional
T6 sequence (Q9Y2T6 whole entry): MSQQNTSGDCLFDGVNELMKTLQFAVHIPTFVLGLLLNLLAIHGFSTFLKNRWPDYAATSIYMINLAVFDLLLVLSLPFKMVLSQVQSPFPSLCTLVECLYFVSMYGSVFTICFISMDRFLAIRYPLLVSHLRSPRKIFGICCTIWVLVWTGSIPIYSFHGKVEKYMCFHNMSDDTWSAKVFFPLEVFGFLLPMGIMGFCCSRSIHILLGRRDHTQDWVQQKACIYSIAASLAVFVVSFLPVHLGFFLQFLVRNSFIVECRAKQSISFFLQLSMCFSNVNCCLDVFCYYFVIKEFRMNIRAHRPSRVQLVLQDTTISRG

Cannabinoid receptor 2 [10] = target: T7, Cannabinoid receptor 2 (Homo sapiens, UniProt P34972); test: SAR analysis of antagonists of the Cannabinoid Receptor 2 using an Image-Based Assay - Set 2. [Related pubchem assays (depositor defined):AID1961, AID1965]; format: functional
T7 sequence (P34972 whole entry): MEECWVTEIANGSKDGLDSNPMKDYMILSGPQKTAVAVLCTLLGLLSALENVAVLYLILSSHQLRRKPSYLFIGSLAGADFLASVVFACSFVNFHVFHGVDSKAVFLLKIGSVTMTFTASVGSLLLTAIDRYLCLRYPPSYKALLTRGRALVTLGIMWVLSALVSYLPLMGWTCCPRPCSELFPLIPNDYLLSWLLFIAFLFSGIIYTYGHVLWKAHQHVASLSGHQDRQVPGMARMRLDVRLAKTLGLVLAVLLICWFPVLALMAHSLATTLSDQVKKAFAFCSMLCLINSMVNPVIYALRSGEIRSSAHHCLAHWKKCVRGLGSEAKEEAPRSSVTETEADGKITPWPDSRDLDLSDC

[11] = target: T6, G-protein coupled receptor 55; test: SAR analysis of selective Agonists of GPR55 using an Image-Based Assay - Set 2. [Related pubchem assays (depositor defined):AID1961, AID1965]; format: functional
Cannabinoid receptor 2 [12] = target: T7, Cannabinoid receptor 2; test: SAR analysis of agonists of the Cannabinoid Receptor 2 using an Image-Based Assay - Set 2. [Related pubchem assays (depositor defined):AID1961, AID1965]; format: functional
[13] = target: T8, G-protein coupled receptor 35 (Homo sapiens, UniProt Q9HC97); test: SAR analysis of Agonists of the GPR35 Receptor using an Image-Based Assay - Set 3. [Related pubchem assays (depositor defined):AID1961, AID1965]; format: functional
T8 sequence (Q9HC97 whole entry): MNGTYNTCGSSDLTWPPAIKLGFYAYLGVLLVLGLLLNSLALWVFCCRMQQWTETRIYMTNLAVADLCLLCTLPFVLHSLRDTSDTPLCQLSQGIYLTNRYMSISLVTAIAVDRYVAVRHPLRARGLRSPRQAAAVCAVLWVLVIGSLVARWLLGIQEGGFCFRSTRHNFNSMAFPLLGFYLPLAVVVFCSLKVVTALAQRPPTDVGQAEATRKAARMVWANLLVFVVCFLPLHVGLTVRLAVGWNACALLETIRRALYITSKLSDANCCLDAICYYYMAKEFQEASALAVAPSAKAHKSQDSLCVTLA

Cannabinoid receptor 1 [14] = target: T9, Cannabinoid receptor 1 (Homo sapiens, UniProt P21554); test: SAR analysis of antagonists of the Cannabinoid Receptor 1 using an Image-Based Assay - Set 3. [Related pubchem assays (depositor defined):AID1961, AID1965]; format: functional
T9 sequence (P21554 whole entry): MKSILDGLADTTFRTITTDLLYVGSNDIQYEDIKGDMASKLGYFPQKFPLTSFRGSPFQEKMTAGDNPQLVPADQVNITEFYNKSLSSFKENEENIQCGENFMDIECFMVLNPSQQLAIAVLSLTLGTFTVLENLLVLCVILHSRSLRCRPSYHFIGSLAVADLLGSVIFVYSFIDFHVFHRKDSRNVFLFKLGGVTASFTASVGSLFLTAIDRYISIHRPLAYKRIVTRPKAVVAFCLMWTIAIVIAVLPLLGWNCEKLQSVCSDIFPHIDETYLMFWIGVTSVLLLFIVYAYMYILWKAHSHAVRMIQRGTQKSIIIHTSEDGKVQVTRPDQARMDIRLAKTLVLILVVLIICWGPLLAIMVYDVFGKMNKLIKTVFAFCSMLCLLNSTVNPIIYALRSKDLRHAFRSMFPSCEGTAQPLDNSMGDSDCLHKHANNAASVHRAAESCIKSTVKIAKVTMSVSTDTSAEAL

Cannabinoid receptor 1 [15] = target: T9, Cannabinoid receptor 1; test: SAR analysis of agonists of the Cannabinoid Receptor 1 using an Image-Based Assay - Set 3. [Related pubchem assays (depositor defined):AID1961, AID1965]; format: functional
[16] = target: T8, G-protein coupled receptor 35; test: SAR analysis of Antagonists of the GPR35 Receptor using an Image-Based Assay - Set 4. [Related pubchem assays (depositor defined):[…]]; format: functional
[17] = test system: Streptococcus sp. 'group A'; test: growth inhibition of control SK(-) GAS strain, dose response, counter-screen for streptokinase expression inhibitor project, luminescence, kanamycin, BacTiterGlo, confirmation (AID 1900); format: functional, organism-based
[18] = inhibitors of intracellular T. cruzi replication, confirmation, NIH3T3 host cells, beta-gal luminescence (AID 2044); format: functional, cell-based;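 note: intracellular parasites grown in NIH/3T3 mouse fibroblasts as host cells; luminescent beta-galactosidase reporter signal from transgenic T. cruzi replicating inside host cells; inhibitors lower the luminescence signal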
[19] = microbe, parasite or virus in culture; format: functional; conditions: Mycobacterium tuberculosis
[20] = cytotoxicity toward NIH3T3 fibroblasts, dose response, counter-screen, cell-based, ATP luminescence, mouse fibroblasts (AID 2010); format: functional;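 note: cells exposed to compound for about 90 hours before reading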
Streptococcus = test: Group A Streptococcus viability loss, dose response, counter-screen for streptokinase expression inhibitor project, luminescence, BacTiterGlo (AID 1915); format: functional, organism-based;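 note: potency for reduction of bacterial viability or growth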
[21] = THP-1 cell cytotoxicity, dose response, cytotoxicity control for non-replicating M. tuberculosis project (AID 489025); format: functional
[22] = HepG2 cell cytotoxicity, dose response, cytotoxicity control for non-replicating M. tuberculosis project (AID 489018); format: functional; conditions: Mycobacterium tuberculosis
cells [23] = format: functional
HEK293 = test: inhibitors of LMP1-driven NF-kB reporter, dose response, cell-based, HEK293, luciferase, cherry-pick (AID 588343); format: functional; conditions: Homo sapiens
P388/ADR = test: cells; format: functional; conditions: Mus musculus
SN12K1 = test: cells; format: functional; conditions: Homo sapiens
P388 = test: cells; format: functional; conditions: Mus musculus
cells [24] = test: cells

Alkaline phosphatase, placental type, sequence (P05187 whole entry): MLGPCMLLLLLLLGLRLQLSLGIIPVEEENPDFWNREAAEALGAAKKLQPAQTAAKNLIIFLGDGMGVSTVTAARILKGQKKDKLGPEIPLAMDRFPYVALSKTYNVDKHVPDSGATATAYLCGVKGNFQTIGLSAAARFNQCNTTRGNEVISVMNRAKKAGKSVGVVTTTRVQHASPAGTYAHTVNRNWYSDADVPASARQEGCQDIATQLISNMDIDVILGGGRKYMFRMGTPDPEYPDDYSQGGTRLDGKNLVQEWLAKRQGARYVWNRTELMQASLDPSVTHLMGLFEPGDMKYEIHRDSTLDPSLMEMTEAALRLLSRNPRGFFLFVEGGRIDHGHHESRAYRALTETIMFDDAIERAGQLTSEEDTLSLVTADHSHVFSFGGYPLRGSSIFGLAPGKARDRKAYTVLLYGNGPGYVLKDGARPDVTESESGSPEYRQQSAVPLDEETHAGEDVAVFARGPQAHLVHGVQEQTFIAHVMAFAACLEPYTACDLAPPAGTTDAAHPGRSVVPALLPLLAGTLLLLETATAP

SMILES: C=CCN1C(=O)NC2(O)C(=O)c3ccccc3C12O (centres undefined)
- IC50 [1]: 12.7 µM (active)
- IC50 [2]: 56.3 µM (active)

SMILES: CC(C)Cc1nc(S(=O)(=O)c2ccc(Cl)cc2)c(N2CCOCC2)o1
- IC50 [3]: > 79.4 µM (inactive)
- IC50 [4]: > 79.4 µM (inactive)
- IC50 [5]: > 79.4 µM (inactive)

SMILES: CCCc1nn(C(C)=O)c2c1C(=O)CC(C)(C)C2
- IC50 [6]: > 100 µM (not active)
- IC50 [1]: > 100 µM (inactive)
- IC50 [2]: 19.1 µM (active)

SMILES: NC(=O)CC(NC(=O)Cc1ccc(Br)cc1)c1ccc(NCCc2ccccc2F)c([N+](=O)[O-])c1 (centres undefined)
- IC50 (SUMO-activating enzyme): 78.2 µM (active)

SMILES: COc1cc2c(cc1OC)C(c1ccc(-c3ccc(Cl)cc3Cl)o1)=NCC2
- EC50 [7]: > 300 µM (not active)
- EC50 [8]: > 300 µM (not active)
- EC50 [9]: > 32 µM (inactive)

SMILES: COc1ccc(S(=O)(=O)N2CCOCC2)cc1NC(=O)c1sc2cccc(F)c2c1C
- IC50 (Cannabinoid receptor 2 [10]): > 32 µM (inactive)
- EC50 [11]: > 32 µM (inactive)
- EC50 (Cannabinoid receptor 2 [12]): > 32 µM (inactive)
- EC50 [13]: > 32 µM (inactive)
- IC50 (Cannabinoid receptor 1 [14]): > 32 µM (inactive)
- EC50 (Cannabinoid receptor 1 [15]): > 32 µM (inactive)
- IC50 [16]: > 32 µM (inactive)

SMILES: CN(C)S(=O)(=O)c1ccc(N2CCCC2)c(C(=O)N2CCN(c3ccccc3)CC2)c1
- IC50 (Cannabinoid receptor 2 [10]): > 32 µM (inactive)
- EC50 [11]: 1.67 µM (active)
- EC50 (Cannabinoid receptor 2 [12]): > 32 µM (inactive)
- EC50 [13]: > 32 µM (inactive)
- IC50 (Cannabinoid receptor 1 [14]): > 32 µM (inactive)
- EC50 (Cannabinoid receptor 1 [15]): > 32 µM (inactive)
- IC50 [16]: > 32 µM (inactive)

SMILES: CO[C@@]12[C@H](COC(N)=O)C3=C(C(=O)C(C)=C(N)C3=O)N1C[C@H]1[C@@H]2N1C (some centres undefined) [PORFIROMYCIN]
- EC50 [17]: < 0.06 µM (active)
- EC50 [18]: < 0.1 µM (active)
- CC50 [19]: 28.3 µM (active)
- EC50 [20]: 6.8 µM (active)
- EC50 (Streptococcus): < 0.06 µM (active)
- CC50 [21]: 1.32 µM (active)
- CC50 [22]: > 20 µM (active)
- IC50 (cells [23]): 0.65 µM (active)
- AC50 (HEK293): 4.01 µM (active)
- GI50 (P388/ADR): 7.74 µM (inactive)
- GI50 (SN12K1): 3.9 µM (inactive)
- GI50 (P388): 1.88 µM (inactive)
- EC50 (cells [24]): 0.088 µM (active)
